Experimental data as given in paper PMC6887663 (Pharmacology Research & Perspectives, 2019).
pIC50: −log10 of the molar value.

Assays:
[1] = Preliminary solubility in potassium phosphate buffer with HLM; type: physicochemical; settings: MMF in solutions of HLM at 0.025 and 0.3 mg/mL
[2] = MMF solubility in supplemented Williams' Medium E; type: physicochemical; settings: MMF up to 750 μmol/L
[3] = Preliminary metabolic stability in HLM; type: in vitro ADME, human; settings: with and without cofactor, 37°C, 0-40 minutes, MMF at 750 μmol/L
P‐gp [4] = target: T1, P‐gp (Homo sapiens, UniProt P08183); assay: P-gp substrate assessment in MDCKII-MDR1 and WT MDCKII cells; type: in vitro ADME; settings: MMF; at 120 minutes; all concentrations investigated
T1 sequence (P08183 whole entry): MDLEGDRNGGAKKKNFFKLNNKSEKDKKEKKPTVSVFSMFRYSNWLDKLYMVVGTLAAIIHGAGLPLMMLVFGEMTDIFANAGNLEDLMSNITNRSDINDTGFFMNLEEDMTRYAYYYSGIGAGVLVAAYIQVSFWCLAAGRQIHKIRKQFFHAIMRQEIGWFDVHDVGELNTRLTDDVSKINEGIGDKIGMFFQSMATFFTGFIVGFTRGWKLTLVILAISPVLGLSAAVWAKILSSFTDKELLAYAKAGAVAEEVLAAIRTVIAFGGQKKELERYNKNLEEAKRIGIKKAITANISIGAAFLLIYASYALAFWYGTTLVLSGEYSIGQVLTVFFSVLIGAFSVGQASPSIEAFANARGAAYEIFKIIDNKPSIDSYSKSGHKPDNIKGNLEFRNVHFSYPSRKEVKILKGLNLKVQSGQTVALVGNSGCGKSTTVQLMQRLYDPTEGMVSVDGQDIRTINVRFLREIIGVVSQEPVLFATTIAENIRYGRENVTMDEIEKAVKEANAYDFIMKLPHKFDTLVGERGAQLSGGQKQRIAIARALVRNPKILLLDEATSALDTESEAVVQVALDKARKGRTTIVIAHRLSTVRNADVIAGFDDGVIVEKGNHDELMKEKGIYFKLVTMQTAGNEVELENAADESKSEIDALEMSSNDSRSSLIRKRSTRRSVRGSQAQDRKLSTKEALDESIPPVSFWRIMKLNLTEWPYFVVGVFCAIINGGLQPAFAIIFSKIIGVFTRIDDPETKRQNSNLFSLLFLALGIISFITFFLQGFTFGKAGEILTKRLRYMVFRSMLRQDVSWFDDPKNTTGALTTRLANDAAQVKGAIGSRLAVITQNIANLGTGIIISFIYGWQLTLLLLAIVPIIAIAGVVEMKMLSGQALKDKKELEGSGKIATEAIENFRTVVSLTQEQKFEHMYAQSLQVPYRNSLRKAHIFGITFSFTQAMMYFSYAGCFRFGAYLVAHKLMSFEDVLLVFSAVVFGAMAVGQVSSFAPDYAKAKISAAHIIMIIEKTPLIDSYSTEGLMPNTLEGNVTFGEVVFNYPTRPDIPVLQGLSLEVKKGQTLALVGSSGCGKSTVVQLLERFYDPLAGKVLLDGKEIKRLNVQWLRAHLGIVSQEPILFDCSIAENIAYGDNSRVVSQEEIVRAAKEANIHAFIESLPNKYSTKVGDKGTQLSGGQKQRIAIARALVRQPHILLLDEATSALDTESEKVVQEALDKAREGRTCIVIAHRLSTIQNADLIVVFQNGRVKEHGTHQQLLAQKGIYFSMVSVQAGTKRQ

[5] = read-out: maximum plasma concentration (Cmax) of MMF; for a 240 mg dose; clinically relevant; cited from earlier work
[6] = MMF concentration in incubation medium; type: in vitro ADME; settings: no‐cell control plate; after 24 hours’ incubation
CYP2C19 = CYP2C19 (Homo sapiens, UniProt P33261); assay: CYP2C19 inhibition in human liver microsomes; type: biochemical
CYP2C19, sequence (P33261 whole entry): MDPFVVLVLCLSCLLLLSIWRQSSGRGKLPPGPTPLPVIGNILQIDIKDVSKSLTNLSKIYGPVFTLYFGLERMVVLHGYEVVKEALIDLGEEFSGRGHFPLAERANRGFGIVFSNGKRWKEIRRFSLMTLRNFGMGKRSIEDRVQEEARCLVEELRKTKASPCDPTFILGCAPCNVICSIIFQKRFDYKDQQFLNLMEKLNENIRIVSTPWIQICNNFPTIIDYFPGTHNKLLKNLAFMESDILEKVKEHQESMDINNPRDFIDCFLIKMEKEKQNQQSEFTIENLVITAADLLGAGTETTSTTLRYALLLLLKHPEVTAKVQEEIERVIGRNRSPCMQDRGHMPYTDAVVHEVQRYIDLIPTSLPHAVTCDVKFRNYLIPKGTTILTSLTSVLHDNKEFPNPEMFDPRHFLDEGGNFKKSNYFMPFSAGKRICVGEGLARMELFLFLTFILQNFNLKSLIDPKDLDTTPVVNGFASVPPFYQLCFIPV

CYP2B6 = target: T2, CYP2B6 (Homo sapiens, UniProt P20813); assay: CYP2B6 inhibition in human liver microsomes; type: biochemical
T2 sequence (P20813 1-491): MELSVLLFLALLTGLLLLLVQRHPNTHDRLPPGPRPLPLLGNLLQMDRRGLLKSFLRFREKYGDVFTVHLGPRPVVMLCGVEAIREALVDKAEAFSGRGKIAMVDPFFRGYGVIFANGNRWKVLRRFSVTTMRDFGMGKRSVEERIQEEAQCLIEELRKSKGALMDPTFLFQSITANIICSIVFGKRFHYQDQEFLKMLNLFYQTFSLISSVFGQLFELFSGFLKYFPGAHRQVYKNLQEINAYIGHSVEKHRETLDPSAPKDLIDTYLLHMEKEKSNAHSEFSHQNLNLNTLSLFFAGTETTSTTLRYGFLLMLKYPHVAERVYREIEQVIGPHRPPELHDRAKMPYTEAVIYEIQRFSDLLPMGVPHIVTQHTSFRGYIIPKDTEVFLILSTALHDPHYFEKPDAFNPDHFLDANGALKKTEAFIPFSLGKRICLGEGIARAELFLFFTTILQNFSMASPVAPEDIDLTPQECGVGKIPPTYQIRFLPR

P‐gp [7] = target: T1, P‐gp; assay: P-gp inhibition, [3H]digoxin efflux in MDCKII-MDR1 and MDCKII-WT cells; settings: for % Control relative to 0 mmol/L MMF: MDCKII cells, [^3H]digoxin net efflux ratio
CYP2D6 = CYP2D6 (Homo sapiens, UniProt P10635); assay: CYP2D6 inhibition in human liver microsomes; type: biochemical
CYP2D6, sequence (P10635 whole entry): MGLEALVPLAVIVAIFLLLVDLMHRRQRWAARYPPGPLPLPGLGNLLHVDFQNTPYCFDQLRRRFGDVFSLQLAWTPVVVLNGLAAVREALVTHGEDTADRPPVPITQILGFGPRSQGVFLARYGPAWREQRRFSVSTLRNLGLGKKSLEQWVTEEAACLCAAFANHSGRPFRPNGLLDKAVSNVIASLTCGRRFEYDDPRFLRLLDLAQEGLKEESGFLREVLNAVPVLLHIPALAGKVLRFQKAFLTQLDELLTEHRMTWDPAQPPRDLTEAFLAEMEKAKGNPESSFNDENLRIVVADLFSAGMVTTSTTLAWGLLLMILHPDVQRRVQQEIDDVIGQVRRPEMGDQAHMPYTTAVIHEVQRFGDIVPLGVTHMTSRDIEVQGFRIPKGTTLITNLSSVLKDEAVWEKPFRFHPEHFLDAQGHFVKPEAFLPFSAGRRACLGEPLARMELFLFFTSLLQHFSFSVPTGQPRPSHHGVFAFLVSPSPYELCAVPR

CYP1A2 mRNA = CYP1A2 mRNA induction in cultured human hepatocytes; type: cell-based
CYP3A4/5 = CYP3A4/5 inhibition in human liver microsomes; type: biochemical; settings: for IC50 at 10 min / inhibition at 10 min, 666 μmol/L: human, human liver microsomes; for inhibition at 10 min, 666 μmol/L: probe testosterone, Inhibition of formation of 6β‐hydroxytestosterone, Mean, testosterone
[8] = Permeability across Caco-2 cell monolayers; type: in vitro ADME; settings: human, Caco-2, pH 7.4
CYP2B6 mRNA = CYP2B6 mRNA induction in cultured human hepatocytes; type: cell-based
CYP2C9 = CYP2C9 (Homo sapiens, UniProt P11712); assay: CYP2C9 inhibition in human liver microsomes; type: biochemical
CYP2C9, sequence (P11712 whole entry): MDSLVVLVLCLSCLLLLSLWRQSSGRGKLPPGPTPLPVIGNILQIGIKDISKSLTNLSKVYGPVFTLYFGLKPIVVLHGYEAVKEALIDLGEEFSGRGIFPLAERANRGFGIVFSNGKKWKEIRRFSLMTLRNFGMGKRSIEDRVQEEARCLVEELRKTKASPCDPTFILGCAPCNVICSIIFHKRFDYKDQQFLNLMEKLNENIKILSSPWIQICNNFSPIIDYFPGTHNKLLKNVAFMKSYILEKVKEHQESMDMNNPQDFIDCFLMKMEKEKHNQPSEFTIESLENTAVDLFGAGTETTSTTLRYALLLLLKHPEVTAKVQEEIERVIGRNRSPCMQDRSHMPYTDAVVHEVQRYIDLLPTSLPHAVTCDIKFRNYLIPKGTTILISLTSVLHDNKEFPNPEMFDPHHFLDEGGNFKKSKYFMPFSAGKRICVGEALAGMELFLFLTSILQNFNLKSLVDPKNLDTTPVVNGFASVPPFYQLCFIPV

CYP2C8 = target: T3, CYP2C8 (Homo sapiens, UniProt P10632); assay: CYP2C8 inhibition in human liver microsomes; type: biochemical
T3 sequence (P10632 1-490): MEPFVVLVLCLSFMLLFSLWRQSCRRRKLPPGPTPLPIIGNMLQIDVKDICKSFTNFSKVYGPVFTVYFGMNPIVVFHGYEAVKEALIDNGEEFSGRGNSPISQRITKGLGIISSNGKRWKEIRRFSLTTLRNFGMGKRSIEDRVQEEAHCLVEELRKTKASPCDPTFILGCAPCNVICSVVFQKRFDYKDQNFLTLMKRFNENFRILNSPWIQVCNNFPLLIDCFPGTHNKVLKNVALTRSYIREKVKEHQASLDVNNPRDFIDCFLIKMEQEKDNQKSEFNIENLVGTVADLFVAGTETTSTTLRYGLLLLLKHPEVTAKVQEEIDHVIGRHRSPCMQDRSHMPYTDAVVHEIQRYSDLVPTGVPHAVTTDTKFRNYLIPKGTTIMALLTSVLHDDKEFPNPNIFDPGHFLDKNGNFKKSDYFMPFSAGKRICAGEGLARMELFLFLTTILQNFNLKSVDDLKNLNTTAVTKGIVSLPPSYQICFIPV

CYP3A4 mRNA = CYP3A4 mRNA induction in cultured human hepatocytes; type: cell-based
CYP1A2 = target: T4, CYP1A2 (Homo sapiens, UniProt P05177); assay: CYP1A2 inhibition in human liver microsomes; type: biochemical
T4 sequence (P05177 1-516): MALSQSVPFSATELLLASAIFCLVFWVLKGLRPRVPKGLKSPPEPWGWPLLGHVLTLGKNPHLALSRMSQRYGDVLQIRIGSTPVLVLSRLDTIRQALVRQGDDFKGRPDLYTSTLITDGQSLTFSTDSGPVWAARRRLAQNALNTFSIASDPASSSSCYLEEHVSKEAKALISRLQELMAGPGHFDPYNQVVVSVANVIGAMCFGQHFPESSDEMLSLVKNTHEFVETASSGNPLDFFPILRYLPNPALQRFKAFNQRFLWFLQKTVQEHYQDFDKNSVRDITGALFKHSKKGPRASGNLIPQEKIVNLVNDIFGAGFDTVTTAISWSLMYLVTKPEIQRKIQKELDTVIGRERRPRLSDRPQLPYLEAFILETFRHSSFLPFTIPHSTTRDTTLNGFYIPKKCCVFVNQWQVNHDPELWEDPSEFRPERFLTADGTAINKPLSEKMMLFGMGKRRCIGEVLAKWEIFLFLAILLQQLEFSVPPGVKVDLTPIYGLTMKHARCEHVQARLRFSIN

P‐gp [9] = target: T1, P‐gp; assay: P-gp inhibition, [3H]digoxin efflux in Caco-2 cells; settings: for % Control relative to 0 mmol/L MMF: Caco‐2 cells, [^3H]digoxin efflux ratio
human hepatocytes = assay: Cytotoxicity in cultured human hepatocytes; type: cell-based; settings: MMF ≤250 μmol/L; 72‐hour incubation
[10] = Cytotoxicity in cultured human hepatocytes; type: cell-based; settings: human, cryopreserved plated human hepatocytes
[11] = test system: moderate‐to‐severe psoriasis; settings: phase III trial (BRIDGE); both P < .001; cited from earlier work
[12] = pH conditions and gut esterases; cited from earlier work

In the case of `COC(=O)/C=C/C(=O)O` [MMF, monomethylfumarate], the “mean recovery upon centrifugation” value [1] was > 92.2%, the “Post‐centrifugation recoveries” value [2] was ≥ 86.5% and the “metabolic stability under the incubation conditions” value [3] was “stable”. For the same compound, the net efflux ratio (P‐gp [4]) was < 2, the Cmax [5] was 11.2 µM and the “MMF still present in medium” value [6] was “over 65%”. The pIC50 (CYP2C19) was < 3.12, the pIC50 (CYP2B6) was < 3.12 and the “% Control relative to 0 mmol/L MMF” value (P‐gp [7]; MMF 0.246 mmol/L) was >69.4%. The “% Control relative to 0 mmol/L MMF” value (P‐gp [7]; MMF 0.738 mmol/L) was >88.2%, the “% Control relative to 0 mmol/L MMF” value (P‐gp [7]; MMF 7.38 mmol/L) was >138% and the pIC50 (CYP2D6) was < 3.12. For the same compound, the “fold increase in CYP1A2 mRNA” value (CYP1A2 mRNA; 250 μmol/L MMF, donor 4) was 4.78 fold, the “CYP1A2 mRNA induction, overall” value (CYP1A2 mRNA; MMF 1‐250 µmol/L, three donors) was “No concentration‐dependent induction effects” and the IC50 at 10 min (CYP3A4/5) was > 750 µM. For the same compound, the Papp A→B at 120 min [8] was < 2 ×10⁻⁶ cm/s, the “fold increase in CYP2B6 mRNA” value (CYP2B6 mRNA; 250 μmol/L MMF, donor 4) was 17.6 fold and the “CYP2B6 mRNA induction, overall” value (CYP2B6 mRNA; MMF 1‐250 µmol/L, three donors) was “No concentration‐dependent induction effects”. For the same compound, the pIC50 (CYP2C9) was < 3.12, the pIC50 (CYP2C8) was < 3.12 and the “fold increase in CYP3A4 mRNA” value (CYP3A4 mRNA; 1 µmol/L MMF, donor 2 (XKU), not concentration dependent) was > 2 fold. For the same compound, the “CYP3A4 mRNA induction, overall” value (CYP3A4 mRNA; MMF at concentrations up to 250 μmol/L) was “no concentration‐dependent increases above 2‐fold”, the pIC50 (CYP1A2) was < 3.12 and the “decrease of [^3H]digoxin efflux ratio” value (P‐gp [9]; 7.38 mmol/L MMF, Caco‐2) was “approximately 85%”. For the same compound, the “fold increase of Papp for [^3H]digoxin in the A–B direction” value (P‐gp [9]; 7.38 mmol/L MMF, Caco‐2, possibly cytotoxicity) was “approximately 9 fold”, the “% Control relative to 0 mmol/L MMF” value (P‐gp [9]; MMF 0.0738 mmol/L) was 76.9% and the “% Control relative to 0 mmol/L MMF” value (P‐gp [9]; MMF 0.246 mmol/L) was 76.7%. The “% Control relative to 0 mmol/L MMF” value (P‐gp [9]; MMF 0.738 mmol/L) was 99.8%, the “% Control relative to 0 mmol/L MMF” value (P‐gp [9]; MMF 7.38 mmol/L) was 14.5% and the “cytotoxic effects on human hepatocytes” value (human hepatocytes) was “No significant cytotoxic effects”. For the same compound, the viability at 72 h, 750 μmol/L [10] was 71.6%.
For `COC(=O)/C=C/C(=O)OC` [DMF, dimethylfumarate], the “number of patients with PASI 75 at Week 16” value [11] is listed as “superiority over placebo and noninferiority versus the FAE combination”, the “metabolic stability under the incubation conditions” value [3] is listed as “unlikely to be stable” and the “hydrolysis half‐life of DMF in the intestine” value [12] is listed as “less than 2 minutes”. The pIC50 (P‐gp [7]) was 3.05, the “Inhibition of formation of 1′‐hydroxymidazolam, Mean” value (CYP3A4/5; DMF 666 μmol/L, 30 min PI + cofactor, midazolam, HLM) was 8.93% and the IC50 at 10 min (CYP3A4/5) was > 666 µM. The inhibition at 10 min, 666 μmol/L (CYP3A4/5; DMF 666 μmol/L, 0 min PI, HLM) was 0%, the inhibition at 10 min, 666 μmol/L (CYP3A4/5; DMF 666 μmol/L, 30 min PI + cofactor, HLM) was 35.5% and the inhibition at 10 min, 666 μmol/L (CYP3A4/5; DMF 666 μmol/L, 30 min PI – cofactor, HLM) was 0%. It also gave a pIC50 (P‐gp [9]) of 2.82.
